According to patent US20250345356A1, “TIRAPAZAMINE COMPOSITIONS AND METHODS” (priority 2024, published 2025):

How the values were obtained:
advanced NSCLC = details: cited from earlier work
[1] = PK of TPZ and metabolites SR4317 and SR4330 after intra-arterial injection of TPZ in NS vs HPβCD; assay type: in vivo, Sprague Dawley rats; details: for AUClast, HβC Mean / Cmax, HβC Mean / AUClast, Normal Saline (NS) Mean / Cmax, Normal Saline (NS) Mean: rats
Description: Purpose of the study: To evaluate the pharmacokinetics (PK) of tirapazamine and its metabolites, SR4317 and SR4330 [Graham, M A et al. Cancer Chemother. Pharmacol. (1997) 40 (1): 1-10], after injection of TPZ in 1% HPβCD or normal saline.
Animals: Twenty-four female (12) and male (12) Sprague Daley (SD) rats, weight 200-250 grams, respectively, with femoral artery and jugular vein cannulated, were purchased from, Taconic. Two extra cannulated male and female rates were used to test tolerability with buffer. Each rate was housed individually to safeguard the vessel catheters.
The study parameters are shown in Table 22. began after a 3-day period of adjustment to the animal facility. The study compound was injected into the femoral artery catheter (FAC at 2-1 m (by slow injection. Blood samples were collected from a jugular vein catheter (JVC) at 6 timepoints: 0 (baseline) and after drug administration at 15 and 30 minutes, 1 hr, 2 hr, and 6 hours. The volume of blood sample for each time point was approximately 0.6 mL. Plasma samples were collected in tubes containing sodium heparin as anti-coagulant. Plasma was prepared and frozen in −80° C. Rats were euthanized after the last blood sample (euthanized after the 6 hr time point).
Male rats were around 250 grams, and female 200 grams. There were 8 groups with Groups 1-4 females, and […]. Each group had 3 rats. TPZ was dissolved in NS or […] at a concentration 0.7 mg/mL.
The concentrations of TPZ and its metabolites, SR4317 and SR4330, in rat plasma samples were analyzed using liquid chromatography Tandem Mass Spectrometry (LC-MS) by Primera Analytical Solutions Corp (Princeton, NJ). Standards for TPZ, SR4317 and SR4330 were provided by Teclison, Inc. (Princeton, NJ) for calibration. All analytical data were reviewed for completeness and accuracy. Data transferred manually was cross-checked against source data which was part of the study raw data.
LC-MS analysis was conducted with Sciex 4000 with a Shimadzu LC-30 System.
The concentration data was imported and plotted with SAS program as ADPC (Analysis Dataset of Pharmacokinetics Concentrations) dataset. PK parameters calculated based on ADPC were output as an Analysis Dataset of Pharmacokinetics Parameters (ADPP) dataset.
PK parameters of each profile were calculated by non-compartmental analysis using SAS programming. BLQ (Below the Limit of Quantification) observation prior to the first measurable concentration was imputed as zero, otherwise, the BLQ observation was left as missing.
An apparent first-order terminal elimination rate constant (Kel) was calculated by linear least-squares regression analysis using at least three points (excluding Cmax) in the terminal log-linear phase. Uniform weighting was adopted when performing regression analysis. Linear-up/log-down approach was utilized to calculate AUC.
A linear model was built to evaluate the effect of solution on the PK parameters, adjusting for sex and dose. The model included sex (F, M), solution type (Normal saline, Hydroxypropyl-beta-Cyclodextrin “HP-beta-CD”), and dose (mg) as fixed effects. Sex and solution type are categorical variables (meaning a variable based on a qualitative, not numerical, property) and dose is a continuous variable (meaning a random variable that can take on an infinite number of values within a certain interval that represents measurable data). Separate models were built for each combination of analyte (TPZ, SR4317 and SR4330) and PK parameters (AUClast and Cmax) using the BY statement, which divides the observations from an input data set into groups for processing.
The difference of lease squared means between solution types was estimated. 95% confidence intervals (CI), and p-values for the difference were presented. The significance level (alpha) was set at 0.05, meaning that a p-value less than 0.05 was considered statistically significant.

[2] = intra-arterial TPZ 3.33 mg/kg in HPβCD
[3] = intra-arterial TPZ 3.33 mg/kg in NS
[4] = intra-arterial TPZ 7 mg/kg in HPβCD
[5] = intra-arterial TPZ 7 mg/kg in NS

**Q.** With `Nc1n[n+]([O-])c2ccccc2[n+]1[O-]` [tirapazamine, 3-amino-1,2,4-benotriazine-1,4-di-N-oxide] as the compound, how does the “removed from treatment as a result of toxicity” value (advanced NSCLC; arm 1 (with tirapazamine 260-330 mg/m^2) vs arm 2) read?
**A.** 26%

**Q.** What about the “patients who developed ≥grade 3 febrile neutropenia” value (advanced NSCLC; arm 1 vs arm 2) of the same compound?
**A.** Twenty

**Q.** And the “survival compared with paclitaxel and carboplatin alone” value (advanced NSCLC; tirapazamine added to paclitaxel and carboplatin)?
**A.** does not result in improved survival

**Q.** What about the “AUClast HβC/NS Ratio (%)” value ([1]; 3.33 mg/kg) of the same compound?
**A.** 86.94%

**Q.** And the “Cmax HβC/NS Ratio (%)” value ([1]; 3.33 mg/kg)?
**A.** 91.15%

**Q.** And the “dose proportionality of plasma concentrations” value ([1]; 3.33 mg/kg vs. 7 mg/kg in either solvent)?
**A.** dose proportional effect was observed

**Q.** What about the “AUClast HβC/NS Ratio (%)” value ([1]; 7 mg/kg) of the same compound?
**A.** 94.02%

**Q.** What about the “Cmax HβC/NS Ratio (%)” value ([1]; 7 mg/kg) of the same compound?
**A.** 101.02%

**Q.** What about the “plasma concentrations, TPZ in NS versus HPβCD” value ([1]; FIG. 23) of the same compound?
**A.** no difference

**Q.** What about the “AUClast, HβC Mean” value [1, 2] of the same compound?
**A.** 781.49 ng·h/mL

**Q.** What about the “Cmax, HβC Mean” value [1, 2] of the same compound?
**A.** 1476.67 ng/mL

**Q.** What about the “AUClast, Normal Saline (NS) Mean” value [1, 3] of the same compound?
**A.** 898.92 ng·h/mL

**Q.** And the “Cmax, Normal Saline (NS) Mean” value [1, 3]?
**A.** 1620.00 ng/mL

**Q.** What about the “AUClast, HβC Mean” value [1, 4] of the same compound?
**A.** 2423.84 ng·h/mL

**Q.** And the “Cmax, HβC Mean” value [1, 4]?
**A.** 4468.33 ng/mL

**Q.** And the “AUClast, Normal Saline (NS) Mean” value [1, 5]?
**A.** 2578.02 ng·h/mL

**Q.** And the “Cmax, Normal Saline (NS) Mean” value [1, 5]?
**A.** 4423.33 ng/mL
